The results in this text go back to ChEMBL document CHEMBL1135895, “Stereochemistry at phosphorus of the reaction catalyzed by myo-inositol monophosphatase” (J Med Chem, 2002).

The nature of data set [1]: Oxidation catalyzed by inositol dehydrogenase at pH 9.13. It counts as ADME.
A short description of data set [2]: IMPase-catalyzed hydrolysis at pH 9.00 at 25 degrees Centigrade. It counts as ADME. Conditions: for Km / k cat: buffer.

As usually defined, the Km is the concentration of substrate that gives half-maximal velocity. As for `O[C@H]1[C@H](O)[C@@H](O)[C@H](O)[C@@H](O)[C@H]1O` [INOSITOL], in data set [1], the Km came to 580 µM, the k cat came to 13.3 s⁻¹ and the “k cat/Km” value came to 23100 M⁻¹ s⁻¹.
Broadly, the Ki is a measure of affinity in units of concentration, obtained from inhibition or displacement. In the case of `OC1C(O)C(O)C(OP(O)(O)=S)C(O)C1O` (stereo not drawn), in data set [2], the inhibition constant Ki was 1140 µM, the Km came out at 2070 µM and the k cat was 0.185 s⁻¹.
On to `O=P(O)(O)OC1C(O)C(O)C(O)C(O)C1O` (stereo not drawn), for which, in data set [2], the Km was 110 µM and the k cat was 0.48 s⁻¹.
